Data from article PMC13081163, “Discovery of a novel Nrf2 activator that modulates mitochondrial function in neurons by regulating DHRS3-Nrf2 interaction after ischemic stroke” (Theranostics, 2026).

Legend:
[1] = 28-day long-term toxicity in rats (intragastric); type: in vivo, rat; conditions: 28 days intragastric; Oma 10 mg/kg, Cpd.51 1, 3 and 10 mg/kg
Procedure: During the long-term toxicity test, rats in each group received daily intragastric administration for 28 consecutive days. Animals in the Sham group were administered a mixture of 99% sesame oil and 1% DMSO at a volume of 0.5 mL per rat. Rats in the remaining groups were intragastrically administered varying doses of the respective therapeutic agents.
During the 28-day long-term toxicity study, rats were euthanized following the completion of continuous intragastric administration. Livers and kidneys from both male and female rats in each group were photographed for macroscopic examination, and serum samples were collected for subsequent kit-based analysis. The liver/kidney index was obtained by dividing the weight of the liver/kidney by the body weight.

Keap1-Nrf2 = target: T1, Keap1-Nrf2 (Homo sapiens, UniProt Q14145); test: Co-IP of Keap1-Nrf2 binding in SH-SY5Y cells; type: cell-based; conditions: 100 nM, physiological and OGD/R conditions
T1 construct: endogenous in cells; host or cells: SH-SY5Y
Procedure: Co-IP experiments were performed as described. After SH-SY5Y cells were treated, lysates were collected and incubated with antibodies with rotation for 12 h at 4 °C. Then, they were incubated with protein A/G magnetic beads (88804, Thermo Scientific, USA) as specification. Subsequently, the beads were collected and immune complexes were isolated. Finally, protein complexes were incubated for 5 min at 95 °C after dissolving in the electrophoresis sample buffer, and subjected to western blotting.

T1 sequence (Q14145 whole entry): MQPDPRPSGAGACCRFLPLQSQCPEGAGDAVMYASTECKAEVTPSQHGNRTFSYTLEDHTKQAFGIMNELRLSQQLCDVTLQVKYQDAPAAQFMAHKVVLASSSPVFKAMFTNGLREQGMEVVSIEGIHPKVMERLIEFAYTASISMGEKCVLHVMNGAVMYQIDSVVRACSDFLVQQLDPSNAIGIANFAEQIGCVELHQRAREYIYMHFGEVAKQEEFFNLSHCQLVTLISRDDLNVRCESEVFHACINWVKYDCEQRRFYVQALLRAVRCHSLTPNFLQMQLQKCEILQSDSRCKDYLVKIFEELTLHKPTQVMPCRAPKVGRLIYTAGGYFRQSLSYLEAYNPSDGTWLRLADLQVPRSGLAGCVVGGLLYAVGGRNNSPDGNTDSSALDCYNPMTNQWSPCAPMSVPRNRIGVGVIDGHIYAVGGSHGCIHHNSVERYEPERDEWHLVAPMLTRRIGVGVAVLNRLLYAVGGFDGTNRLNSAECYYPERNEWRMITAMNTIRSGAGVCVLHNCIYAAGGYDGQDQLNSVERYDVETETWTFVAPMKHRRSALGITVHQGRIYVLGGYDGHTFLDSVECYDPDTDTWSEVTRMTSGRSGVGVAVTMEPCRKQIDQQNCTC

SMILES: CC1(C)CCC2(C(=O)NO)CCC3(C)C(C(=O)C=C4C5(C)C=C(C#N)C(=O)C(C)(C)C5CCC43C)C2C1 (stereo not drawn) [Cpd.51]
- body weight [1]: neither compound significantly affected body weight
- plasma markers of hepatic and renal injury [1]: showed no such effects at any dose tested
- amount of Nrf2 bound to Keap1 (Co-IP) (Keap1-Nrf2): reduced the amount of Nrf2 bound to Keap1
